Measurements taken from ChEMBL document CHEMBL4715871, “4-Acyl Pyrroles as Dual BET-BRD7/9 Bromodomain Inhibitors Address BETi Insensitive Human Cancer Cell Lines” (J Med Chem, 2020).
Active and inactive are the calls of the source. No cut-off for these calls is given here.

Key:
[1] = target: T1, Bromodomain-containing protein 4 (Homo sapiens, UniProt O60885); assay: Binding affinity to BRD4 BD1 (unknown origin) at 25 degree C by ITC analysis
HL-60 = assay: Growth inhibition of human HL60 cells after 72 hrs by CellTiter 96S AQeous non-radioactive cell proliferation assay; assay type: functional
MCF7 = assay: Growth inhibition of human MCF7 cells after 72 hrs by CellTiter 96S AQeous non-radioactive cell proliferation assay; assay type: functional
SK-MEL-5 [2] = assay: Growth inhibition of human SK-MEL-5 cells after 72 hrs by CellTiter 96S AQeous non-radioactive cell proliferation assay; assay type: functional
[3] = target: T1, Bromodomain-containing protein 4; assay: Binding affinity to human BRD4 BD1 (N44 to E168 aa residues) by bromoKdELECT Discover assay
[4] = target: T2, Bromodomain-containing protein 9 (Homo sapiens, UniProt Q9H8M2); assay: Binding affinity to human partial length BRD9 (R130 to V259 residues) by bromoKdELECT Discover assay
T2 sequence (Q9H8M2 whole entry): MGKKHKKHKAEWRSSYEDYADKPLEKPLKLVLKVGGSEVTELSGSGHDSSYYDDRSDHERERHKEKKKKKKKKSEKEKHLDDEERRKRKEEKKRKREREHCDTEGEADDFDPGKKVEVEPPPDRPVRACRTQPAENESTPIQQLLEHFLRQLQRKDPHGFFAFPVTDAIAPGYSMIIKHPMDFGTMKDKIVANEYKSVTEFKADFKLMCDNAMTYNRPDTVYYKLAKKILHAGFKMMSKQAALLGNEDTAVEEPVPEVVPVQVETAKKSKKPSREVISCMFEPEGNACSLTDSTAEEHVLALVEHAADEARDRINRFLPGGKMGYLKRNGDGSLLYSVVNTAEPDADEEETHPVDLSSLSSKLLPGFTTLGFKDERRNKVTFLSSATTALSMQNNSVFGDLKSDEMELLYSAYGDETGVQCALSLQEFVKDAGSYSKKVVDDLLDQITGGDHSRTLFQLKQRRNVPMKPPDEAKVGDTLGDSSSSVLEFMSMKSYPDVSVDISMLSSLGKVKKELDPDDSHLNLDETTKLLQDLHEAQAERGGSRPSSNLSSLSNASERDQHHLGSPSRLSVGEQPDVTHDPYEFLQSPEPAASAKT

[5] = target: T1, Bromodomain-containing protein 4; assay: Binding affinity to human BRD4 BD1 (N44 to E168 aa residues) at 10 uM by bromoKdELECT Discover assay
[6] = target: T1, Bromodomain-containing protein 4; assay: Binding affinity to BRD4 BD1 (unknown origin) at 15 degree C by ITC analysis
[7] = target: T1, Bromodomain-containing protein 4; assay: Binding affinity to BRD4 BD1 (unknown origin) at 37 degree C by ITC analysis
SNB-75 = assay: Growth inhibition of human SNB-75 cells after 72 hrs by CellTiter 96S AQeous non-radioactive cell proliferation assay; assay type: functional
UACC-62 = assay: Growth inhibition of human UACC-62 cells after 72 hrs by CellTiter 96S AQeous non-radioactive cell proliferation assay; assay type: functional
NCI-H522 = assay: Growth inhibition of human NCI-H522 cells after 72 hrs by CellTiter 96S AQeous non-radioactive cell proliferation assay; assay type: functional
LOX IMVI = assay: Cytotoxicity against human LOX-IMVI cells after 72 hrs by CellTiter 96S AQeous non-radioactive cell proliferation assay; assay type: functional; conditions: read-out: LC50 (the source's name)
SK-MEL-5 [8] = assay: Cytotoxicity against human SK-MEL-5 cells after 72 hrs by CellTiter 96S AQeous non-radioactive cell proliferation assay; assay type: functional; conditions: read-out: LC50 (the source's name)
[9] = Cytotoxicity against human A498 cells after 72 hrs by CellTiter 96S AQeous non-radioactive cell proliferation assay; assay type: functional; conditions: read-out: LC50 (the source's name)
Homo sapiens [10] = species on record: Homo sapiens; assay: Selectivity index, ratio of Kd for BRD7 (unknown origin) to BRD4 BD1 (unknown origin) by bromoKdELECT Discover assay
Homo sapiens [11] = species on record: Homo sapiens; assay: Selectivity index, ratio of Kd for BRD9 (unknown origin) to BRD4 BD1 (unknown origin) by bromoKdELECT Discover assay
Homo sapiens [12] = species on record: Homo sapiens; assay: Selectivity index, ratio of Kd for BRPF1B (unknown origin) to BRD4 BD1 (unknown origin) by bromoKdELECT Discover assay

Structure (SMILES)	Kd [1]	GI50 (HL-60; Homo sapiens, HL-60)	GI50 (MCF7; Homo sapiens, MCF7)	GI50 (SK-MEL-5 [2]; Homo sapiens, SK-MEL-5)	other results
CCN(CC)S(=O)(=O)c1ccc(OC)c(NC(=O)c2[nH]c(C)c3c2CCCCC3=O)c1	0.14 µM	1.36 µM	6.84 µM	16.3 µM	–
CCc1c(C(=O)NCc2c(O)ccc3cccc(O)c23)[nH]c(C)c1C(C)=O	–	1.3 µM	4.2 µM	4.2 µM	Kd [3]: > 4 µM; Kd ([4]; read-out: Kd): 2.9 µM
COc1ccc(S(=O)(=O)N2CC3(COC3)C2)cc1NC(=O)c1[nH]c(C)c2c1CCCCC2=O	0.26 µM	0.821 µM	5.76 µM	20.8 µM	–
CCc1c(C(=O)Nc2cc(S(=O)(=O)N(CC)CC)ccc2O)[nH]c(C)c1C(C)=O	–	17 µM	–	–	–
COc1ccc(S(=O)(=O)N2CCCCC2)cc1NC(=O)c1c2c(c(C)n1C)C(=O)CCCC2	–	> 10 µM	> 10 µM	> 10 µM	Activity [5]: inactive
COc1ccc(S(=O)(=O)N2CCCCCC2)cc1NC(=O)c1[nH]c(C)c2c1CCCCC2=O	0.18 µM	0.565 µM	3 µM	6.85 µM	–
CCN(CC)S(=O)(=O)c1ccc(O)c(NC(=O)c2[nH]c(C)c3c2CCCCC3=O)c1	0.07 µM	> 40 µM	> 40 µM	> 80 µM	Kd [6]: < 0.01 µM; Kd [7]: 0.17 µM
CC(=O)c1cc(-c2cc(C(=O)NC3CC3)ccc2C)c2ncccn12	–	1.33 µM	4.49 µM	2.77 µM	Kd [4]: Not Active
CCC(=O)N1CCOc2c(cc(-c3ccc(OC)c(OC)c3)cc2OC[C@H]2CCCN(C)C2)C1	–	> 50 µM	> 50 µM	> 50 µM	Kd [4]: Not Active
COc1ccc(S(=O)(=O)N2CCN(C)CC2)cc1NC(=O)c1[nH]c(C)c2c1CCCCC2=O	0.42 µM	2.08 µM	> 25 µM	> 20 µM	–
COc1ccc(S(=O)(=O)N2CCCCC2)cc1NC(=O)c1[nH]c(C)c2c1CCCCC2=O	0.05 µM	0.491 µM	4.06 µM	6.79 µM	GI50 (SNB-75): 0.141 µM; GI50 (UACC-62): 0.355 µM; GI50 (NCI-H522): 0.372 µM; CC50 (LOX IMVI): 8.17 µM; CC50 (SK-MEL-5 [8]): 12.2 µM; CC50 [9]: 19.7 µM
COc1ccc(S(=O)(=O)N2CCOCC2)cc1NC(=O)c1[nH]c(C)c2c1CCCCC2=O	0.08 µM	0.17 µM	7.67 µM	6.8 µM	Ratio (Homo sapiens [10]): 1.4; Ratio (Homo sapiens [11]): 1.1; Ratio (Homo sapiens [12]): 8.7
Cc1sc2c(c1C)C(c1ccc(Cl)cc1)=N[C@@H](CC(=O)OC(C)(C)C)c1nnc(C)n1-2	–	–	–	–	GI50 (HL-60): 0.021 µM; GI50 (MCF7): > 50 µM; GI50 (SK-MEL-5 [2]): > 40 µM
Cc1cc(=O)n(C)c2cc(N3C(=O)CC[C@H](NS(=O)(=O)CC(C)C)[C@H]3c3ccc(Cl)cc3)ccc12	–	5.03 µM	–	–	–
